In this test the test system is corn leaf discs (variety Multitop). In words: Dark induced senescence of corn leaf. As to conditions: Zea mays, foliar, 192 h, 100 μM-0.0001 μM, 0.5% DMSO, 23° C., 8 days, image analysis, read-out: IC50 (concentration at which 50% senescence was achieved), dark induced senescence of corn leaf. How it is done:
It is known that strigolactones regulate (accelerate) leaf senescence, potentially through D14 receptor signaling. Corn plants of variety Multitop were grown in a greenhouse with relative 75% humidity and at 23-25° C. for 6 weeks. 1.4 cm diameter leaf discs were placed into 24-well plates containing test compounds in a concentration gradient (100 μM-0.0001 μM) at a final concentration of 0.5% DMSO. Each concentration was tested in 12 replicates. Plates were sealed with seal foil. The foil was pierced to provide gas exchange in each well. The plates were placed into the completely dark climatic chamber. Plates were incubated in the chamber with 75% humidity and at 23° C. for 8 days. On days 0, 5, 6, 7 and 8 photographs were taken of each plate, and image analysis conducted with a macro developed using the ImageJ software. The image analysis was used to determine the concentration at which 50% senescence was achieved (IC50), see Table 4. The lower the value, the higher senescence induction potency.

Molecules are shown by their SMILES.

`CC1=CC(O/C=C2/C(=O)OC3Oc4ccccc4C23)OC1=O` (centres unmarked) [Compound I-1, (1E)-1-[(4-methyl-5-oxo-2H-furan-2-yl)oxymethylene]-3a,8b-dihydrofuro[2,3-b]benzofuran-2-one]: the IC50 turned out to be 30 nM. The same measure for `CC1=C(C)C(O/C=C2/C(=O)OC3Oc4ccccc4C23)OC1=O` (centres unmarked) [Compound I-2, (1E)-1-[(3,4-dimethyl-5-oxo-2H-furan-2-yl)oxymethylene]-3a,8b-dihydrofuro[2,3-b]benzofuran-2-one]: 15 nM; for `CC1=C(C)C(O/C=C2/C(=O)OC3Sc4ccccc4C23)OC1=O` (centres unmarked) [Compound I-8, (1E)-1-[(3,4-dimethyl-5-oxo-2H-furan-2-yl)oxymethylene]-3a,8b-dihydrobenzothiopheno[2,3-b]furan-2-one]: 40 nM. The same measure for `CC1=CC(O/C=C2/C(=O)OC3C2c2ccccc2[S+]3[O-])OC1=O` (centres unmarked) [Compound I-13, (1E)-1-[(4-methyl-5-oxo-2H-furan-2-yl)oxymethylene]-4-oxo-3a,8b-dihydrobenzothiopheno[2,3-b]furan-2-one]: 15 nM; for `CC1=CC(O/C=C2/C(=O)OC3COc4ccccc4C23)OC1=O` (centres unmarked) [Compound I-31, (1E)-1-[(4-methyl-5-oxo-2H-furan-2-yl)oxymethylene]-4,9b-dihydro-3aH-furo[2,3-c]chromen-2-one]: 30 nM.
